Columns and labels:
Assay in all cases: -log10 GI50 (growth inhibition 50%) (-log10(M)); higher = more potent growth inhibition
AU565 = system: AU565
Summary of the method: (§1)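 A value carrying a < qualifier equals the top dose tested. Each compound was tested in triplicate on breast cancer cell lines for 72 hours at nine doses in 1:5 serial dilution, using a luminescence read-out against a time-zero plate. Nonlinear least squares fitting of a Gompertz curve gave GI50, the molar concentration causing the set level of growth inhibition, which is reported as its negative logarithm. The logarithm is base 10.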

BT20 = system: BT20
Summary of the method: as §1

BT549 = system: BT549
Summary of the method: as §1

CAMA1 = system: CAMA1
Summary of the method: as §1

HCC1395 = system: HCC1395
Summary of the method: as §1

HCC1569 = system: HCC1569
Summary of the method: as §1

HCC1806 = system: HCC1806
Summary of the method: as §1

MCF10A = system: MCF10A
Summary of the method: as §1

MCF10F = system: MCF10F
Summary of the method: as §1

MDAMB134VI = system: MDAMB134VI
Summary of the method: as §1

MDAMB361 = system: MDAMB361
Summary of the method: as §1

MX1 = system: MX1
Summary of the method: as §1

SKBR3 = system: SKBR3
Summary of the method: as §1

SUM149PT = system: SUM149PT
Summary of the method: as §1

SUM229PE = system: SUM229PE
Summary of the method: as §1

SUM52PE = system: SUM52PE
Summary of the method: as §1

T47D_KBluc = system: T47D_KBluc
Summary of the method: as §1

UACC812 = system: UACC812
Summary of the method: as §1

ZR751 = system: ZR751
Summary of the method: as §1

ZR75B = system: ZR75B
Summary of the method: as §1

Row | Structure (SMILES) | -log10 GI50 (AU565) | -log10 GI50 (BT20) | -log10 GI50 (BT549) | -log10 GI50 (CAMA1) | -log10 GI50 (HCC1395) | -log10 GI50 (HCC1569) | -log10 GI50 (HCC1806) | -log10 GI50 (MCF10A) | -log10 GI50 (MCF10F) | -log10 GI50 (MDAMB134VI) | -log10 GI50 (MDAMB361) | -log10 GI50 (MX1) | -log10 GI50 (SKBR3) | -log10 GI50 (SUM149PT) | -log10 GI50 (SUM229PE) | -log10 GI50 (SUM52PE) | -log10 GI50 (T47D_KBluc) | -log10 GI50 (UACC812) | -log10 GI50 (ZR751) | -log10 GI50 (ZR75B)
1 | COc1ccc(C2=N[C@@H](c3ccc(Cl)cc3)[C@@H](c3ccc(Cl)cc3)N2C(=O)N2CCNC(=O)C2)c(OC(C)C)c1 [Nutlin 3a] | 4.79 | 4.41 | 4.37 | 4.34 | 4.65 | 4.43 | 4.32 | 5.21 | 5.18 | 4.47 | 4.18 | 4.65 | 4.33 | 4.56 | 4.63 | 4.74 | 4.5 | 5.45 | 5.51 | 5.69
2 | O=C(/C=C/C#Cc1cccc(NS(=O)(=O)c2ccccc2)c1)NO [Oxamflatin] | 6.19 | 5.42 | 5.96 | 6.09 | 5.67 | 5.88 | 6.16 | 6.14 | 5.41 | 6.18 | 6.15 | 6.32 | 5.95 | 6.23 | 5.74 | 6.23 | 5.9 | 5.75 | 5.65 | 6.41
3 | O=S(=O)(CC1CS1)c1ccc(Oc2ccccc2)cc1 (stereo not given) [SB-3CT] | < 4 | 4.21 | 5.17 | < 4 | 4.03 | < 3.78 | < 4 | 4.05 | < 4 | < 4 | < 3.78 | 4.85 | < 4 | 4.27 | < 4 | 4.33 | < 3.78 | < 4 | < 3.78 | 4.62
4 | N#Cc1c(-c2ccccc2)cc(-c2cc(Br)ccc2O)[nH]c1=O [TCS PIM-11] | < 4.18 | < 3.88 | < 3.88 | < 3.88 | < 3.88 | 4.33 | < 3.88 | 4.57 | < 3.88 | < 3.88 | < 3.88 | 4.73 | < 3.88 | 4.49 | 4.57 | 4.72 | < 3.88 | < 3.88 | 4 | < 3.88
5 | CC(/C=C/C(=O)NO)=C\[C@@H](C)C(=O)c1ccc(N(C)C)cc1 [Trichostatin A] | 5.44 | 4.68 | 5.13 | 5.57 | 4.5 | 5.06 | 4.97 | 4.82 | 4.22 | 5.2 | 5.09 | 4.79 | 5.21 | 5.14 | 4.83 | 5.58 | 5.4 | 5.05 | 4.74 | 5.3
6 | Cc1cc(Nc2cc(N3CCN(C)CC3)nc(Sc3ccc(NC(=O)C4CC4)cc3)n2)n[nH]1 [VX-680] | 5.66 | 5.34 | 5.75 | 4.53 | 5.21 | 5.68 | 4.76 | 6.04 | 4.99 | 6.03 | 5.1 | 6.81 | < 4.48 | 5.07 | 6.47 | 6.42 | 4.49 | 4.79 | 5.29 | 6.79
7 | CCCC(CCC)C(=O)O [Valproic acid] | 2.85 | 2.44 | 2.57 | 2.79 | 2.47 | 2.77 | 2.58 | 2.97 | 2.42 | 3.12 | 2.82 | 3.45 | 3.04 | 2.86 | 2.65 | 2.91 | 2.76 | 2.59 | 2.78 | 2.71
8 | O=C(CCCCCCC(=O)Nc1ccccc1)NO [Vorinostat] | 4.08 | 3.74 | 3.83 | 4.13 | 3.49 | 3.98 | 3.89 | 3.68 | 3.08 | 4.4 | 4.26 | 4.06 | 4.32 | 4.02 | 4.02 | 4.73 | 3.99 | 4.37 | 3.77 | 4.02

From the supplement of paper PMC3937590
